Values joined by “and” are separate entries in the source; they are usually repeats but may differ in a detail not shown here. Identical values can stand only once.

This test deals with T1, GST-tAurora A (123-401aa) fusion protein (Homo sapiens, UniProt O14965).
T1 construct: GST-tAurora A (123-401aa) fusion protein; made in house; host or cells: Sf9 insect cells (baculovirus, pBacPAK8)
T1 sequence (O14965 123-401): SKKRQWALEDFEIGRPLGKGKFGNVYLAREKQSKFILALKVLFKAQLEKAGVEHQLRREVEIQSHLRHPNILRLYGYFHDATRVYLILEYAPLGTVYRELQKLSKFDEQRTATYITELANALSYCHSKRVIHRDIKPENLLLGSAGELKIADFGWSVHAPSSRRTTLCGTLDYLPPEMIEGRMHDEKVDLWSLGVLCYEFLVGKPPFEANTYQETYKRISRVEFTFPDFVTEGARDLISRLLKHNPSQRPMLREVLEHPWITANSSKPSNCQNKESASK
In words: Aurora Kinase A luminescent kinase assay. It is filed as biochemical. As to conditions: IC50 (concentration of a test compound at which activity of 50% of Aurora A is inhibited). The protocol:
The Aurora A catalytic domain with an N-terminal GST tag was constructed in pBacPAK8 plasmid and expressed in sf9 cells. […] To concentrate GST-tAurora A, buffer was replaced with Tris buffer (100 mM Tris (pH 7.5), 300 mM NaCl, 1 mM EDTA, 4 mM DTT) using Amicon ultra-15 (MWCO:30K, Millipore) to 2.4 mg/ml. After the addition of equal volume of glycerol and 0.04% Triton X-100, the proteins were stored aliquoted at −80° C.
Briefly, a test compound, enzyme, substrate-tetra(LRRWSLG), DTT and ATP were dissolved in Aur buffer (50 mM Tris-HCl pH 7.4, 10 mM NaCl, 10 mM MgCl2, and 100 μg/ml BSA) individually before the assay. […] 5 μM ATP (5 μl), 1 mM DTT (5 μl) and 0.1 mM tetra(LRRWSLG) peptide substrate (5 μl) were added into the reactions of test compounds and GST-tAurora A. The reactions were incubated at 37° C. for 90 min. 50 μl of Kinase-Glo Plus Reagent (V3771, Promega) was added into the reactions, followed by the incubation at 25° C. for 20 min.
What is called IC50 is the point on the concentration scale where inhibition reaches its midpoint. A higher IC50 goes with weaker potency. For the molecule `Nc1ccc(CNc2ncnc3oc(-c4ccccc4)c(-c4ccccc4)c23)cc1` [Compound 1, N-(4-aminobenzyl)-5,6-diphenylfuro[2,3-d]pyrimidin-4-amine], the IC50 is below 1000 nM.

With `Nc1ccc(CCNc2ncnc3oc(-c4ccccc4)c(-c4ccccc4)c23)cc1` [Compound 3, N-(4-aminophenethyl)-5,6-diphenylfuro[2,3-d]pyrimidin-4-amine], the IC50 is below 1000 nM. The result for `Oc1ccc(CCNc2ncnc3oc(-c4ccccc4)c(-c4ccccc4)c23)cc1` [Compound 4] reads below 1000 nM; that for `O=C(Nc1ccc(CCNc2ncnc3oc(-c4ccccc4)c(-c4ccccc4)c23)cc1)c1ccccc1` [Compound 5], 45 to 400 nM and < 1000 nM. In the case of `NC(=O)Nc1ccc(CCNc2ncnc3oc(-c4ccccc4)c(-c4ccccc4)c23)cc1` [Compound 7], the half-maximal inhibitory concentration (IC50) is below 1000 nM. Turning to `CNC(=O)Nc1ccc(CCNc2ncnc3oc(-c4ccccc4)c(-c4ccccc4)c23)cc1` [Compound 8], the IC50 was 45 to 400 nM and < 1000 nM.

As for `CN(C)C(=O)Nc1ccc(CCNc2ncnc3oc(-c4ccccc4)c(-c4ccccc4)c23)cc1` [Compound 9], the IC50 was 45 to 400 nM and < 1000 nM.

Turning to `O=C(NCc1ccccc1)Nc1ccc(CCNc2ncnc3oc(-c4ccccc4)c(-c4ccccc4)c23)cc1` [Compound 10], the IC50 was 45 to 400 nM and < 1000 nM.

Take `S=C(Nc1ccccc1)Nc1ccc(CCNc2ncnc3oc(-c4ccccc4)c(-c4ccccc4)c23)cc1` [Compound 13]: the IC50 is 45 to 400 nM and < 1000 nM. The result for `O=C(Nc1ccc(CCNc2ncnc3oc(-c4ccccc4)c(-c4ccccc4)c23)cc1)Nc1cccc(Cl)c1` [Compound 15] reads 45 to 400 nM and < 1000 nM. Turning to `O=C(Nc1ccc(CCNc2ncnc3oc(-c4ccccc4)c(-c4ccccc4)c23)cc1)Nc1cccc(Br)c1` [Compound 16], the IC50 is below 1000 nM. The result for `O=C(Nc1ccc(CCNc2ncnc3oc(-c4ccccc4)c(-c4ccccc4)c23)cc1)Oc1ccccc1` [Compound 17] reads 45 to 400 nM and < 1000 nM; that for `O=C(Nc1ccccc1)Oc1ccc(CCNc2ncnc3oc(-c4ccccc4)c(-c4ccccc4)c23)cc1` [Compound 18], 45 to 400 nM and < 1000 nM.

Turning to `O=C(NCCCl)Nc1ccc(CCNc2ncnc3oc(-c4ccccc4)c(-c4ccccc4)c23)cc1` [Compound 19], the IC50 is 45 to 400 nM and < 1000 nM. As for `O=C(NCCN1CCOCC1)Nc1ccc(CCNc2ncnc3oc(-c4ccccc4)c(-c4ccccc4)c23)cc1` [Compound 20], the IC50 was 45 to 400 nM and < 1000 nM. With `O=C(Nc1ccc(CCNc2ncnc3oc(-c4ccccc4)c(-c4ccccc4)c23)cc1)N1CCN(c2ccc(F)cc2)CC1` [Compound 22], the IC50 was below 1000 nM. The result for `Nc1ccc(CCOc2ncnc3oc(-c4ccccc4)c(-c4ccccc4)c23)cc1` [Compound 26] reads below 1000 nM.

Consider `O=C(Nc1ccccc1)Nc1ccc(CCOc2ncnc3oc(-c4ccccc4)c(-c4ccccc4)c23)cc1` [Compound 27], for which the half-maximal inhibitory concentration (IC50) is 45 to 400 nM and < 1000 nM. The result for `Cc1cccc(NC(=O)Nc2ccc(CCNc3ncnc4oc(-c5ccccc5)c(-c5ccccc5)c34)cc2)c1` [Compound 28] reads 45 to 400 nM and < 1000 nM; that for `O=C(Nc1ccc(CCNc2ncnc3oc(-c4ccccc4)c(-c4ccccc4)c23)cc1)Nc1cccc(C(F)(F)F)c1` [Compound 29], 45 to 400 nM and < 1000 nM; that for `N#Cc1cccc(NC(=O)Nc2ccc(CCNc3ncnc4oc(-c5ccccc5)c(-c5ccccc5)c34)cc2)c1` [Compound 30], 45 to 400 nM and < 1000 nM. The result for `CC(=O)c1cccc(NC(=O)Nc2ccc(CCNc3ncnc4oc(-c5ccccc5)c(-c5ccccc5)c34)cc2)c1` [Compound 31] reads 45 to 400 nM and < 1000 nM. The result for `O=C(Nc1ccc(CCNc2ncnc3oc(-c4ccccc4)c(-c4ccccc4)c23)cc1)Nc1cccc([N+](=O)[O-])c1` [Compound 32] reads 45 to 400 nM and < 1000 nM; that for `O=C(Nc1ccc(CCNc2ncnc3oc(-c4ccccc4)c(-c4ccccc4)c23)cc1)N1CCN(CCO)CC1` [Compound 34], below 1000 nM. The molecule `COc1cccc(NC(=O)Nc2ccc(CCNc3ncnc4oc(-c5ccccc5)c(-c5ccccc5)c34)cc2)c1` [Compound 40] showed an IC50 below 1000 nM.

As to `O=C(Cc1ccccc1)Nc1ccc(CCNc2ncnc3oc(-c4ccccc4)c(-c4ccccc4)c23)cc1` [Compound 41], the IC50 was 45 to 400 nM and < 1000 nM. The result for `O=C(Nc1ccc(CCNc2ncnc3oc(-c4ccccc4)c(-c4ccccc4)c23)cc1)NN1CCCCC1` [Compound 45] reads < 1000 nM and 45 to 400 nM; that for `COC(=O)C(Cc1ccc(NC(=O)Nc2ccccc2)cc1)Nc1ncnc2oc(-c3ccccc3)c(-c3ccccc3)c12` (stereo not shown) [Compound 52], < 1000 nM and 45 to 400 nM. The result for `COc1ccc(-c2c(-c3ccccc3)oc3ncnc(NCCc4ccc(NC(=O)Nc5ccccc5)cc4)c23)cc1` [Compound 56] reads 45 to 400 nM and < 1000 nM; that for `COc1cccc(-c2c(-c3ccccc3)oc3ncnc(NCCc4ccc(NC(=O)Nc5ccccc5)cc4)c23)c1` [Compound 59], 45 to 400 nM and < 1000 nM; that for `O=C(Nc1ccc(CCNc2ncnc3oc(-c4ccccc4)c(-c4ccccc4)c23)cc1)Nc1ccc(F)c(F)c1` [Compound 62], 45 to 400 nM and < 1000 nM. Take `O=C(Nc1ccc(CCNc2ncnc3oc(-c4ccccc4)c(-c4ccccc4)c23)cc1)Nc1cc(F)cc(F)c1` [Compound 63]: the IC50 was 45 to 400 nM and < 1000 nM. In turn, `CC(=O)Nc1cccc(NC(=O)Nc2ccc(CCNc3ncnc4oc(-c5ccccc5)c(-c5ccccc5)c34)cc2)c1` [Compound 64] displayed an IC50 below 1000 nM. The result for `COc1ccc(-c2oc3ncnc(NCCc4ccc(NC(=O)Nc5ccccc5)cc4)c3c2-c2ccc(O)cc2)cc1` [Compound 66] reads 45 to 400 nM and < 1000 nM; that for `CCCNC(=O)Nc1ccc(CCNc2ncnc3oc(-c4ccccc4)c(-c4ccccc4)c23)cc1` [Compound 67], 45 to 400 nM and < 1000 nM; that for `CCCCCNC(=O)Nc1ccc(CCNc2ncnc3oc(-c4ccccc4)c(-c4ccccc4)c23)cc1` [Compound 68], below 1000 nM. With `CCCCCCNC(=O)Nc1ccc(CCNc2ncnc3oc(-c4ccccc4)c(-c4ccccc4)c23)cc1` [Compound 69], the IC50 is below 1000 nM. Regarding `O=C(Nc1ccc(CCNc2ncnc3oc(-c4ccccc4)c(-c4ccccc4)c23)cc1)NC1CCCC1` [Compound 70], the IC50 is 45 to 400 nM and < 1000 nM.

`O=C(Nc1ccc(CCNc2ncnc3oc(-c4ccccc4)c(-c4ccccc4)c23)cc1)NC1CCCCC1` [Compound 71]: the IC50 was 45 to 400 nM and < 1000 nM.

`COc1ccc(NC(=O)Nc2ccc(CCNc3ncnc4oc(-c5ccccc5)c(-c5ccccc5)c34)cc2)cc1` [Compound 72] gave an IC50 below 1000 nM. The result for `O=C(Nc1ccc(CCNc2ncnc3oc(-c4ccccc4)c(-c4ccccc4)c23)cc1)Nc1ccc2c(c1)OCO2` [Compound 73] reads 45 to 400 nM and < 1000 nM. `S=C(Nc1ccc(CCNc2ncnc3oc(-c4ccccc4)c(-c4ccccc4)c23)cc1)Oc1ccccc1` [Compound 74] showed an IC50 below 1000 nM. The result for `N#C/N=C(\Nc1ccccc1)Nc1ccc(CCNc2ncnc3oc(-c4ccccc4)c(-c4ccccc4)c23)cc1` [Compound 75] reads below 1000 nM. The result for `O=Cc1ccc(-c2c(-c3ccccc3)oc3ncnc(NCCc4ccc(NC(=O)Nc5ccccc5)cc4)c23)o1` [Compound 76] reads 45 to 400 nM and < 1000 nM; that for `O=C(Nc1ccccc1)Nc1ccc(CCNc2ncnc3oc(-c4ccccc4)c(-c4ccc([N+](=O)[O-])cc4)c23)cc1` [Compound 77], 45 to 400 nM and < 1000 nM; that for `O=C(Nc1ccccc1)Nc1ccc(CCNc2ncnc3oc(-c4ccccc4)c(-c4cccc(O)c4)c23)cc1` [Compound 78], 45 to 400 nM and < 1000 nM. The result for `C[Si](C)(C)C#Cc1c(-c2ccccc2)oc2ncnc(NCCc3ccc(NC(=O)Nc4ccccc4)cc3)c12` [Compound 81] reads below 1000 nM; that for `O=C(Nc1ccc(CCNc2ncnc3oc(-c4ccccc4)c(-c4ccccc4)c23)cc1)Nc1cccc(F)c1F` [Compound 91], 45 to 400 nM and < 1000 nM; that for `O=C(Nc1ccc(CCNc2ncnc3oc(-c4ccccc4)c(-c4ccccc4)c23)cc1)Nc1c(F)cccc1F` [Compound 94], below 1000 nM. The molecule `COc1ccc(NC(=O)Nc2ccc(CCNc3ncnc4oc(-c5ccccc5)c(-c5ccccc5)c34)cc2)cc1OC` [Compound 95] came in with an IC50 below 1000 nM. On to `O=C(Nc1ccc(CCNc2ncnc3oc(-c4ccccc4)c(-c4ccccc4)c23)cc1)Nc1ccccc1[N+](=O)[O-]` [Compound 97], for which the IC50 is 45 to 400 nM and < 1000 nM. The result for `Cc1ccc(NC(=O)Nc2ccc(CCNc3ncnc4oc(-c5ccccc5)c(-c5ccccc5)c34)cc2)cc1` [Compound 98] reads 45 to 400 nM and < 1000 nM; that for `CN(C)c1ccc(NC(=O)Nc2ccc(CCNc3ncnc4oc(-c5ccccc5)c(-c5ccccc5)c34)cc2)cc1` [Compound 100], below 1000 nM. The result for `CCOC(=O)c1c(-c2ccccc2)oc2ncnc(NCCc3ccc(NC(=O)Nc4ccccc4)cc3)c12` [Compound 107] reads below 1000 nM. The result for `CN1CCN(Cc2ccc(NC(=O)Nc3ccc(CCNc4ncnc5oc(-c6ccccc6)c(-c6ccccc6)c45)cc3)cc2)CC1` [Compound 118] reads below 1000 nM.

For the origin of these results see patent publication US8138194B2, “Fused bicyclic pyrimidine compounds as aurora kinase inhibitors” (National Health Research Institutes, priority 2008, dated 2012).
